# From patent publication US10738028B2, “Spiro three-membered ring, spiro five-membered ring peptide deformylase inhibitor and use thereof in antibacteria and anti-tumor” (priority 2016, dated 2020)
# Legend:
# Format in all cases: cell-based
# [1] = tested on: HCT-116 colorectal cancer cell line; assay: CCK-8 proliferation inhibition; conditions: Homo sapiens, HCT-116, 72 h, concentration of 30 μM; 72 hours; CCK-8; read-out: HCT116 inhibition rate/%
# Procedure, shortened: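 HCT-116 cells, seeded at 2000 cells/well in McCoy's 5A with 10% newborn bovine serum, were cultured overnight at 37° C., 5% CO2, then exposed to compound dilutions in medium for 72 hours. Viability was read with 1:10 diluted CCK-8; controls received 1‰ DMSO.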
# [2] = tested on: Enterococcus faecalis (EFA); assay: MIC, two-fold agar dilution (CLSI), clinical isolates
# Procedure, shortened: (§1)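 Test samples were assayed by the CLSI-recommended two-fold agar dilution method, and the minimum inhibitory concentration against each tested strain was determined.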
# [3] = tested on: Escherichia coli (including ESBLs, non-ESBLs); assay: as above; conditions: for Anti-bacterial activity (MIC), strain ECO+ 15-1: clinical isolate ECO+ 15-1; for Anti-bacterial activity (MIC), strain ECO+ 15-2: clinical isolate ECO+ 15-2; for Anti-bacterial activity (MIC), strain ECO+ 15-3: clinical isolate ECO+ 15-3; for Anti-bacterial activity (MIC), strain ECO+ 15-4: clinical isolate ECO+ 15-4; for Anti-bacterial activity (MIC), strain ECO− 15-1: clinical isolate ECO− 15-1; for Anti-bacterial activity (MIC), strain ECO− 15-2: clinical isolate ECO− 15-2; for Anti-bacterial activity (MIC), strain ECO− 15-3: clinical isolate ECO− 15-3; for Anti-bacterial activity (MIC), strain ECO− 15-4: clinical isolate ECO− 15-4
# Procedure, shortened: as §1
# [4] = tested on: methicillin-sensitive Staphylococcus aureus (MSSA); assay: as above; conditions: for Anti-bacterial activity (MIC), strain MSSA 15-3: clinical isolate MSSA 15-3; for Anti-bacterial activity (MIC), strain MSSA 15-4: clinical isolate MSSA 15-4; for Anti-bacterial activity (MIC), strain MSSA 15-5: clinical isolate MSSA 15-5; for Anti-bacterial activity (MIC), strain MSSA 15-6: clinical isolate MSSA 15-6
# Procedure, shortened: as §1
# [5] = tested on: methicillin-resistant Staphylococcus epidermidis (MRSE); assay: as above; conditions: for Anti-bacterial activity (MIC), strain MRSE 15-1: clinical isolate MRSE 15-1; for Anti-bacterial activity (MIC), strain MRSE 15-2: clinical isolate MRSE 15-2; for Anti-bacterial activity (MIC), strain MRSE 15-3: clinical isolate MRSE 15-3; for Anti-bacterial activity (MIC), strain MRSE 15-7: clinical isolate MRSE 15-7
# Procedure, shortened: as §1
# [6] = tested on: Moraxella catarrhalis (BCA); assay: as above
# Procedure, shortened: as §1
# [7] = tested on: methicillin-resistant Staphylococcus aureus (MRSA); assay: as above; conditions: for Anti-bacterial activity (MIC), strain MRSA 15-1: clinical isolate MRSA 15-1; for Anti-bacterial activity (MIC), strain MRSA 15-2: clinical isolate MRSA 15-2; for Anti-bacterial activity (MIC), strain MRSA 15-3: clinical isolate MRSA 15-3; for Anti-bacterial activity (MIC), strain MRSA 15-4: clinical isolate MRSA 15-4
# Procedure, shortened: as §1
# [8] = tested on: Enterococcus faecium (EFM); assay: as above
# Procedure, shortened: as §1
# [9] = tested on: Streptococcus pneoumoniae (SPN); assay: as above
# Procedure, shortened: as §1
# [10] = tested on: methicillin-sensitive Staphylococcus epidermidis (MSSE); assay: as above; conditions: for Anti-bacterial activity (MIC), strain MSSE 15-3: clinical isolate MSSE 15-3; for Anti-bacterial activity (MIC), strain MSSE 15-4: clinical isolate MSSE 15-4; for Anti-bacterial activity (MIC), strain MSSE 15-5: clinical isolate MSSE 15-5; for Anti-bacterial activity (MIC), strain MSSE 15-6: clinical isolate MSSE 15-6
# Procedure, shortened: as §1
smiles,measurement,setting,value
O=C(C[C@@H](CC1CCCC1)C(=O)N1CC2(CC2)C[C@H]1C(=O)NC1CC1)NO [Example 68],inhibition at 30 µM,[1],21%
same,Anti-bacterial activity (MIC),[2]; strain EFA 15-1,> 32 µg/mL
same,Anti-bacterial activity (MIC),[2]; strain EFA 15-2,> 32 µg/mL
same,Anti-bacterial activity (MIC),[2]; strain EFA 15-3,> 32 µg/mL
same,Anti-bacterial activity (MIC),[2]; strain EFA 15-4,> 32 µg/mL
same,Anti-bacterial activity (MIC),[2]; strain EFA 15-5,> 32 µg/mL
same,Anti-bacterial activity (MIC),[2]; strain EFA 15-6,> 32 µg/mL
same,Anti-bacterial activity (MIC),[2]; strain EFA 15-9,32 µg/mL
same,"Anti-bacterial activity (MIC), strain ECO+ 15-1",[3],> 32 µg/mL
same,"Anti-bacterial activity (MIC), strain ECO+ 15-2",[3],> 32 µg/mL
same,"Anti-bacterial activity (MIC), strain ECO+ 15-3",[3],> 32 µg/mL
same,"Anti-bacterial activity (MIC), strain ECO+ 15-4",[3],> 32 µg/mL
same,"Anti-bacterial activity (MIC), strain ECO− 15-1",[3],> 32 µg/mL
same,"Anti-bacterial activity (MIC), strain ECO− 15-2",[3],> 32 µg/mL
same,"Anti-bacterial activity (MIC), strain ECO− 15-3",[3],> 32 µg/mL
same,"Anti-bacterial activity (MIC), strain ECO− 15-4",[3],> 32 µg/mL
same,"Anti-bacterial activity (MIC), strain MSSA 15-3",[4],> 32 µg/mL
same,"Anti-bacterial activity (MIC), strain MSSA 15-4",[4],> 32 µg/mL
same,"Anti-bacterial activity (MIC), strain MSSA 15-5",[4],> 32 µg/mL
same,"Anti-bacterial activity (MIC), strain MSSA 15-6",[4],> 32 µg/mL
same,"Anti-bacterial activity (MIC), strain MRSE 15-1",[5],> 32 µg/mL
same,"Anti-bacterial activity (MIC), strain MRSE 15-2",[5],> 32 µg/mL
same,"Anti-bacterial activity (MIC), strain MRSE 15-3",[5],> 32 µg/mL
same,"Anti-bacterial activity (MIC), strain MRSE 15-7",[5],> 32 µg/mL
same,Anti-bacterial activity (MIC),[6]; strain BCA 14-1,32 µg/mL
same,Anti-bacterial activity (MIC),[6]; strain BCA 14-4,32 µg/mL
same,Anti-bacterial activity (MIC),[6]; strain BCA 14-5,4 µg/mL
same,Anti-bacterial activity (MIC),[6]; strain BCA 14-6,32 µg/mL
same,Anti-bacterial activity (MIC),[6]; strain BCA 14-7,32 µg/mL
same,Anti-bacterial activity (MIC),[6]; strain BCA 14-8,32 µg/mL
same,Anti-bacterial activity (MIC),[6]; strain BCA 14-10,2 µg/mL
same,"Anti-bacterial activity (MIC), strain MRSA 15-1",[7],> 32 µg/mL
same,"Anti-bacterial activity (MIC), strain MRSA 15-2",[7],> 32 µg/mL
same,"Anti-bacterial activity (MIC), strain MRSA 15-3",[7],> 32 µg/mL
same,"Anti-bacterial activity (MIC), strain MRSA 15-4",[7],> 32 µg/mL
same,Anti-bacterial activity (MIC),[8]; strain EFM 15-1,> 32 µg/mL
same,Anti-bacterial activity (MIC),[8]; strain EFM 15-2,> 32 µg/mL
same,Anti-bacterial activity (MIC),[8]; strain EFM 15-3,> 32 µg/mL
same,Anti-bacterial activity (MIC),[8]; strain EFM 15-4,32 µg/mL
same,Anti-bacterial activity (MIC),[8]; strain EFM 15-5,4 µg/mL
same,Anti-bacterial activity (MIC),[8]; strain EFM 15-6,4 µg/mL
same,Anti-bacterial activity (MIC),[9]; strain SPN 16-2,2 µg/mL
same,Anti-bacterial activity (MIC),[9]; strain SPN 16-4,1 µg/mL
same,"Anti-bacterial activity (MIC), strain MSSE 15-3",[10],> 32 µg/mL
same,"Anti-bacterial activity (MIC), strain MSSE 15-4",[10],> 32 µg/mL
same,"Anti-bacterial activity (MIC), strain MSSE 15-5",[10],> 32 µg/mL
same,"Anti-bacterial activity (MIC), strain MSSE 15-6",[10],> 32 µg/mL
O=C(C[C@@H](CC1CCCC1)C(=O)N1CC2(CC2)C[C@H]1C(=O)Nc1ncco1)NO [Example 69],inhibition at 30 µM,[1],15%
same,Anti-bacterial activity (MIC),[2]; strain EFA 15-1,> 32 µg/mL
same,Anti-bacterial activity (MIC),[2]; strain EFA 15-2,> 32 µg/mL
same,Anti-bacterial activity (MIC),[2]; strain EFA 15-3,> 32 µg/mL
same,Anti-bacterial activity (MIC),[2]; strain EFA 15-4,> 32 µg/mL
same,Anti-bacterial activity (MIC),[2]; strain EFA 15-5,> 32 µg/mL
same,Anti-bacterial activity (MIC),[2]; strain EFA 15-6,> 32 µg/mL
same,Anti-bacterial activity (MIC),[2]; strain EFA 15-9,> 32 µg/mL
same,"Anti-bacterial activity (MIC), strain ECO+ 15-1",[3],32 µg/mL
same,"Anti-bacterial activity (MIC), strain ECO+ 15-2",[3],32 µg/mL
same,"Anti-bacterial activity (MIC), strain ECO+ 15-3",[3],32 µg/mL
same,"Anti-bacterial activity (MIC), strain ECO+ 15-4",[3],> 32 µg/mL
same,"Anti-bacterial activity (MIC), strain ECO− 15-1",[3],32 µg/mL
same,"Anti-bacterial activity (MIC), strain ECO− 15-2",[3],32 µg/mL
same,"Anti-bacterial activity (MIC), strain ECO− 15-3",[3],32 µg/mL
same,"Anti-bacterial activity (MIC), strain ECO− 15-4",[3],32 µg/mL
same,"Anti-bacterial activity (MIC), strain MSSA 15-3",[4],8 µg/mL
same,"Anti-bacterial activity (MIC), strain MSSA 15-4",[4],2 µg/mL
same,"Anti-bacterial activity (MIC), strain MSSA 15-5",[4],2 µg/mL
same,"Anti-bacterial activity (MIC), strain MSSA 15-6",[4],> 32 µg/mL
same,"Anti-bacterial activity (MIC), strain MRSE 15-1",[5],8 µg/mL
same,"Anti-bacterial activity (MIC), strain MRSE 15-2",[5],8 µg/mL
same,"Anti-bacterial activity (MIC), strain MRSE 15-3",[5],8 µg/mL
same,"Anti-bacterial activity (MIC), strain MRSE 15-7",[5],8 µg/mL
same,Anti-bacterial activity (MIC),[6]; strain BCA 14-1,> 32 µg/mL
same,Anti-bacterial activity (MIC),[6]; strain BCA 14-4,> 32 µg/mL
same,Anti-bacterial activity (MIC),[6]; strain BCA 14-5,8 µg/mL
same,Anti-bacterial activity (MIC),[6]; strain BCA 14-6,> 32 µg/mL
same,Anti-bacterial activity (MIC),[6]; strain BCA 14-7,> 32 µg/mL
same,Anti-bacterial activity (MIC),[6]; strain BCA 14-8,> 32 µg/mL
same,Anti-bacterial activity (MIC),[6]; strain BCA 14-10,4 µg/mL
same,"Anti-bacterial activity (MIC), strain MRSA 15-1",[7],2 µg/mL
same,"Anti-bacterial activity (MIC), strain MRSA 15-2",[7],8 µg/mL
same,"Anti-bacterial activity (MIC), strain MRSA 15-3",[7],2 µg/mL
same,"Anti-bacterial activity (MIC), strain MRSA 15-4",[7],8 µg/mL
same,Anti-bacterial activity (MIC),[8]; strain EFM 15-1,> 32 µg/mL
same,Anti-bacterial activity (MIC),[8]; strain EFM 15-2,> 32 µg/mL
same,Anti-bacterial activity (MIC),[8]; strain EFM 15-3,> 32 µg/mL
same,Anti-bacterial activity (MIC),[8]; strain EFM 15-4,> 32 µg/mL
same,Anti-bacterial activity (MIC),[8]; strain EFM 15-5,8 µg/mL
same,Anti-bacterial activity (MIC),[8]; strain EFM 15-6,8 µg/mL
same,Anti-bacterial activity (MIC),[9]; strain SPN 16-2,2 µg/mL
same,Anti-bacterial activity (MIC),[9]; strain SPN 16-4,1 µg/mL
same,"Anti-bacterial activity (MIC), strain MSSE 15-3",[10],1 µg/mL
same,"Anti-bacterial activity (MIC), strain MSSE 15-4",[10],8 µg/mL
same,"Anti-bacterial activity (MIC), strain MSSE 15-5",[10],8 µg/mL
same,"Anti-bacterial activity (MIC), strain MSSE 15-6",[10],2 µg/mL
